According to PMC13210772, “Dual FLT3/MAPK14 Proteolysis-Targeting Chimera (PROTAC) Induces Potent Acute Myeloid Leukemia Cell Death” (Pharmaceuticals, 2026):

Tests used:
Test in all cases: NanoBRET CELLinib128
Assay type in all cases: binding
EPHA6 = target: T1, EPHA6 (Homo sapiens, UniProt Q9UF33); settings: 100% no effect, 0% complete tracer displacement, read-out: Tracer bound
T1 construct: Full-length kinase ORF (Promega, Madison, WI, USA) cloned in frame with a NanoLuc-vector was transfected into HEK293T cells; host or cells: HEK293T
T1 sequence (Q9UF33 23-1036): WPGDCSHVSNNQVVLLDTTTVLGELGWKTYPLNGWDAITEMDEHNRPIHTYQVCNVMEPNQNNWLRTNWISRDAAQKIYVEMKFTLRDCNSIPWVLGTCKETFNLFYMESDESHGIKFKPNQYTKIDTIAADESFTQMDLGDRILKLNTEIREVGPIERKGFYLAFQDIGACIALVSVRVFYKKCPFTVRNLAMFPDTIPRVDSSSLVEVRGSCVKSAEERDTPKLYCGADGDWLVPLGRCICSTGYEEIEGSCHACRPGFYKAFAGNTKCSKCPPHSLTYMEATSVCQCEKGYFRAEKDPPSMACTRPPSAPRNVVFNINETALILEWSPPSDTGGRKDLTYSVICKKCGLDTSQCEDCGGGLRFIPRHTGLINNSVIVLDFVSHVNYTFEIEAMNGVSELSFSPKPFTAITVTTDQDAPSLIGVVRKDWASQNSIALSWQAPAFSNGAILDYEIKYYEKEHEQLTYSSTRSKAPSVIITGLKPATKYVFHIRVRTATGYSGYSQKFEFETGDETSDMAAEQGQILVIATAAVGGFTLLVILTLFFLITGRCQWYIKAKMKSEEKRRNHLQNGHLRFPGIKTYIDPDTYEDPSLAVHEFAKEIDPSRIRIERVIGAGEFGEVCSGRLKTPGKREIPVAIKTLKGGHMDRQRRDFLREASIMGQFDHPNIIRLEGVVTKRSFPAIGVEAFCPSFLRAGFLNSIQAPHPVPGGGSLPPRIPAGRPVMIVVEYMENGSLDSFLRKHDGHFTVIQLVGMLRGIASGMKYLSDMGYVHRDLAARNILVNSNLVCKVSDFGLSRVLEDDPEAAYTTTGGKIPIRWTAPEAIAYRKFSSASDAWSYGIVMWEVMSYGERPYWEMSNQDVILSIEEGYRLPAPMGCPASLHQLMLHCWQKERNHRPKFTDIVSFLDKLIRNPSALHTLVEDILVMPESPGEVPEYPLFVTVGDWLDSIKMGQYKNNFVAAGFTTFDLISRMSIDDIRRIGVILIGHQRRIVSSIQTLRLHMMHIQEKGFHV
Method: (§1) To get an impression about the binding strength of the PROTAC MA191 and the reference inhibitor MA68 to other kinases besides FLT3-ITD the binding on a kinase panel of further 128 representative protein kinases at 1 μM concentration was tested using the NanoBRET^TM cellular target engagement assay (CELLinib128 assay, CELLinib GmbH, Frankfurt, Germany). […] In none of the 128 kinases MA191 was able to displace the tracer (inhibitor) used by more than 50%, Table S1, Supplementary Information).
(§2) The CELLinib128 assay was performed by CELLinib GmbH, Frankfurt (Germany) as described previously. In brief: Full-length kinase ORF (Promega, Madison, WI, USA) cloned in frame with a NanoLuc-vector was transfected into HEK293T cells in Opti-MEM without phenol red (Life Technologies, Carlsbad, CA, USA) at a density of 2 × 10^5 cells/mL using FuGENE HD (Promega, E2312) and proteins were allowed to express for 20 h. For CDKs, where indicated below, an excess of an activator without an NLuc-fusion was cotransfected. […] The system was allowed to equilibrate at 37 °C for 2 h and 5% CO2 prior to BRET measurements. For PKCs, a chemical activator PMA was added in a final concentration of 1 µM was added together with test compounds and tracers (Promega, V1171). To measure BRET, NanoBRET^TM NanoGlo substrate + extracellular NanoLuc inhibitor (Promega, N2160) were added as per the manufacturer’s protocol, and filtered luminescence was measured (450 nm BP filter (donor) and 610 nm LP filter (acceptor)). For the 1-shot test compounds, data were normalized to the tracer control and the background control or control compound plateau and an average and SD were calculated. […] For the control compounds competitive displacement data were normalized to the tracer Ctrl and the background Ctrl and then plotted and fitted using GraphPad Prism 10 software using a normalized 3-parameter curve fit with the following equation: Y = 100/(1 + 10^X−LogIC50).

CHEK2 = target: T2, CHEK2 (Homo sapiens, UniProt O96017); settings: 100% no effect, 0% complete tracer displacement, read-out: Tracer bound
T2 construct: Full-length kinase ORF (Promega, Madison, WI, USA) cloned in frame with a NanoLuc-vector was transfected into HEK293T cells; host or cells: HEK293T
Method: as §1, §2

MAP4K1 = target: T3, MAP4K1 (Homo sapiens, UniProt Q92918); settings: 100% no effect, 0% complete tracer displacement, read-out: Tracer bound
T3 construct: Full-length kinase ORF (Promega, Madison, WI, USA) cloned in frame with a NanoLuc-vector was transfected into HEK293T cells; host or cells: HEK293T
Method: as §1, §2

STK4 = target: T4, STK4 (Homo sapiens, UniProt Q13043); settings: 1 µM; 100% no effect, 0% complete tracer displacement
T4 construct: Full-length kinase ORF (Promega, Madison, WI, USA) cloned in frame with a NanoLuc-vector was transfected into HEK293T cells; host or cells: HEK293T
T4 sequence (Q13043 whole entry): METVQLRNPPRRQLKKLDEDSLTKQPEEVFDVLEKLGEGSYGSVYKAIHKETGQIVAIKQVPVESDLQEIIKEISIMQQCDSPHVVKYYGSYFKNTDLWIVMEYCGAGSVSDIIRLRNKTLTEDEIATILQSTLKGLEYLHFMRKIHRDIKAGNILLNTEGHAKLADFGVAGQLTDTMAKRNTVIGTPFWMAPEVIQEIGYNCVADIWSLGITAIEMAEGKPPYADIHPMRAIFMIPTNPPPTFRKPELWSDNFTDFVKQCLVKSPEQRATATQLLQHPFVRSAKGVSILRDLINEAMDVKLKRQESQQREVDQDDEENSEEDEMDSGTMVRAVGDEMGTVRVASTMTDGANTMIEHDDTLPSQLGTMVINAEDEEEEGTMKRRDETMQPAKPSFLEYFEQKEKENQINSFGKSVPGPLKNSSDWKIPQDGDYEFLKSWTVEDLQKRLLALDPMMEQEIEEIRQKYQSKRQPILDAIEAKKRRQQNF
Method: as §1, §2

PTK2 = target: T5, PTK2 (Homo sapiens, UniProt Q05397); settings: 100% no effect, 0% complete tracer displacement, read-out: Tracer bound
T5 construct: Full-length kinase ORF (Promega, Madison, WI, USA) cloned in frame with a NanoLuc-vector was transfected into HEK293T cells; host or cells: HEK293T
Method: as §1, §2

NUAK1 = target: T6, NUAK1 (Homo sapiens, UniProt O60285); settings: 1 µM; 100% no effect, 0% complete tracer displacement
T6 construct: Full-length kinase ORF (Promega, Madison, WI, USA) cloned in frame with a NanoLuc-vector was transfected into HEK293T cells; host or cells: HEK293T
Method: as §1, §2

STK38L = target: T7, STK38L (Homo sapiens, UniProt Q9Y2H1); settings: 100% no effect, 0% complete tracer displacement, read-out: Tracer bound
T7 construct: Full-length kinase ORF (Promega, Madison, WI, USA) cloned in frame with a NanoLuc-vector was transfected into HEK293T cells; host or cells: HEK293T
Method: as §1, §2

IRAK4 = target: T8, IRAK4 (Homo sapiens, UniProt Q9NWZ3); settings: 1 µM; 100% no effect, 0% complete tracer displacement
T8 construct: Full-length kinase ORF (Promega, Madison, WI, USA) cloned in frame with a NanoLuc-vector was transfected into HEK293T cells; host or cells: HEK293T
Method: as §1, §2

RPS6KA3 = target: T9, RPS6KA3 (Homo sapiens, UniProt P51812); settings: 100% no effect, 0% complete tracer displacement, read-out: Tracer bound
T9 construct: Full-length kinase ORF (Promega, Madison, WI, USA) cloned in frame with a NanoLuc-vector was transfected into HEK293T cells; host or cells: HEK293T
Method: as §1, §2

CDK4-CCND3 = target: T10, CDK4-CCND3 (Homo sapiens, UniProt P11802); settings: 100% no effect, 0% complete tracer displacement, read-out: Tracer bound
T10 construct: Full-length kinase ORF (Promega, Madison, WI, USA) cloned in frame with a NanoLuc-vector was transfected into HEK293T cells; host or cells: HEK293T
Method: as §1, §2

TYK2 = target: T11, TYK2 (Homo sapiens, UniProt P29597); settings: 1 µM; 100% no effect, 0% complete tracer displacement
T11 construct: Full-length kinase ORF (Promega, Madison, WI, USA) cloned in frame with a NanoLuc-vector; host or cells: HEK293T
Method: as §1, §2

PRKCQ-PMA = target: T12, PRKCQ-PMA (Homo sapiens, UniProt Q04759); settings: 100% no effect, 0% complete tracer displacement, read-out: Tracer bound
T12 construct: Full-length kinase ORF (Promega, Madison, WI, USA) cloned in frame with a NanoLuc-vector was transfected into HEK293T cells; host or cells: HEK293T
T12 sequence (Q04759 whole entry): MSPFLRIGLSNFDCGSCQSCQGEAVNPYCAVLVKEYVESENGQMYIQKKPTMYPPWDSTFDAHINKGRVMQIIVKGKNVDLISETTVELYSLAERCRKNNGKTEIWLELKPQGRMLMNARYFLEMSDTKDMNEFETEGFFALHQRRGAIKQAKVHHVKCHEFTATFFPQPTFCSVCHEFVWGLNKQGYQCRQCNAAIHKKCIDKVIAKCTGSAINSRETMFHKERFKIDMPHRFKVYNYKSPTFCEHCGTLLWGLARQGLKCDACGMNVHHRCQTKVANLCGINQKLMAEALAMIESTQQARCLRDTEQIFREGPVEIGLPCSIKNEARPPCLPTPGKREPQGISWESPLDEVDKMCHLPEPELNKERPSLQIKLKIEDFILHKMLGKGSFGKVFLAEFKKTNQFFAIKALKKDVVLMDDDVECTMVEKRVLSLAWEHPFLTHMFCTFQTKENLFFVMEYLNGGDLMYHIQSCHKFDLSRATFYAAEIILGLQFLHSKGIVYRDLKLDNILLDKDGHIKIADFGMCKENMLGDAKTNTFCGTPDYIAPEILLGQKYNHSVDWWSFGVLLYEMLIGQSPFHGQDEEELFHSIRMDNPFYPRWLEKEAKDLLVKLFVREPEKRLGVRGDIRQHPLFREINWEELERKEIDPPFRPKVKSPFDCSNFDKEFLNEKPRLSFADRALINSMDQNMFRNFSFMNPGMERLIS
Method: as §1, §2

JAK3 = target: T13, JAK3 (Homo sapiens, UniProt P52333); settings: 100% no effect, 0% complete tracer displacement, read-out: Tracer bound
T13 construct: Full-length kinase ORF (Promega, Madison, WI, USA) cloned in frame with a NanoLuc-vector was transfected into HEK293T cells; host or cells: HEK293T
Method: as §1, §2

WEE2 = target: T14, WEE2 (Homo sapiens, UniProt P0C1S8); settings: 100% no effect, 0% complete tracer displacement, read-out: Tracer bound
T14 construct: Full-length kinase ORF (Promega, Madison, WI, USA) cloned in frame with a NanoLuc-vector; host or cells: HEK293T
Method: as §1, §2

CSNK2A2 = target: T15, CSNK2A2 (Homo sapiens, UniProt P19784); settings: 100% no effect, 0% complete tracer displacement, read-out: Tracer bound
T15 construct: Full-length kinase ORF (Promega, Madison, WI, USA) cloned in frame with a NanoLuc-vector was transfected into HEK293T cells; host or cells: HEK293T
T15 sequence (P19784 whole entry): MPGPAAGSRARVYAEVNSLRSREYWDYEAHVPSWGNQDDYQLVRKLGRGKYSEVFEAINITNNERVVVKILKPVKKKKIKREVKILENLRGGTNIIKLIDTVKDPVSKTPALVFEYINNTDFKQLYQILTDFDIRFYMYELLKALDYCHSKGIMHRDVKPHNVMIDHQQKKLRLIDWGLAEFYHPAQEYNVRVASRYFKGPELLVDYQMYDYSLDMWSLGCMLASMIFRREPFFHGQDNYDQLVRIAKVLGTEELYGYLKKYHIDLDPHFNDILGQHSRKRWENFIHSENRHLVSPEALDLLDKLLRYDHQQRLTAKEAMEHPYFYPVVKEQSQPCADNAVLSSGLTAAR
Method: as §1, §2

CDK14-CCNY = target: T16, CDK14-CCNY (Homo sapiens, UniProt O94921); settings: 1 µM; 100% no effect, 0% complete tracer displacement
T16 construct: Full-length kinase ORF (Promega, Madison, WI, USA) cloned in frame with a NanoLuc-vector was transfected into HEK293T cells; host or cells: HEK293T
Method: as §1, §2

STK33 = target: T17, STK33 (Homo sapiens, UniProt Q9BYT3); settings: 100% no effect, 0% complete tracer displacement, read-out: Tracer bound
T17 construct: Full-length kinase ORF (Promega, Madison, WI, USA) cloned in frame with a NanoLuc-vector was transfected into HEK293T cells; host or cells: HEK293T
T17 sequence (Q9BYT3 whole entry): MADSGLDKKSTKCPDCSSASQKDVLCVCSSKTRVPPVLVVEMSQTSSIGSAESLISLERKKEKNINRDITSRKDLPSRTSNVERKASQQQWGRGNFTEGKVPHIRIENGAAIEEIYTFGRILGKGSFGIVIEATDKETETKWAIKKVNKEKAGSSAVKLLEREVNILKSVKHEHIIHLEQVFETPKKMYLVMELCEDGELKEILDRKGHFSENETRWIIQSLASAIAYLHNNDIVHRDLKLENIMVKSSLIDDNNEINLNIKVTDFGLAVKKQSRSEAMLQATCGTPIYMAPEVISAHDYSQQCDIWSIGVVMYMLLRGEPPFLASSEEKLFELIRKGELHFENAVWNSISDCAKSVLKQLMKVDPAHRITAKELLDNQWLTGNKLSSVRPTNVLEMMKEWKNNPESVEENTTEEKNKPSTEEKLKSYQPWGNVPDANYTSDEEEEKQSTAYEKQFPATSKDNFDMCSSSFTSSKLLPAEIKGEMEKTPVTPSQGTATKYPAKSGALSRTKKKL
Method: as §1, §2

SIK3 = target: T18, SIK3 (Homo sapiens, UniProt Q9Y2K2); settings: 1 µM; 100% no effect, 0% complete tracer displacement
T18 construct: Full-length kinase ORF (Promega, Madison, WI, USA) cloned in frame with a NanoLuc-vector was transfected into HEK293T cells; host or cells: HEK293T
Method: as §1, §2

ERN1 = target: T19, ERN1 (Homo sapiens, UniProt O75460); settings: 100% no effect, 0% complete tracer displacement, read-out: Tracer bound
T19 construct: Full-length kinase ORF (Promega, Madison, WI, USA) cloned in frame with a NanoLuc-vector was transfected into HEK293T cells; host or cells: HEK293T
Method: as §1, §2

MAP3K11 = target: T20, MAP3K11 (Homo sapiens, UniProt Q16584); settings: 1 µM; 100% no effect, 0% complete tracer displacement
T20 construct: Full-length kinase ORF (Promega, Madison, WI, USA) cloned in frame with a NanoLuc-vector was transfected into HEK293T cells; host or cells: HEK293T
Method: as §1, §2

PRKCD-PMA = target: T21, PRKCD-PMA (Homo sapiens, UniProt Q05655); settings: 100% no effect, 0% complete tracer displacement, read-out: Tracer bound
T21 construct: Full-length kinase ORF (Promega, Madison, WI, USA) cloned in frame with a NanoLuc-vector was transfected into HEK293T cells; host or cells: HEK293T
Method: as §1, §2

STK35 = target: T22, STK35 (Homo sapiens, UniProt Q8TDR2); settings: 100% no effect, 0% complete tracer displacement, read-out: Tracer bound
T22 construct: Full-length kinase ORF (Promega, Madison, WI, USA) cloned in frame with a NanoLuc-vector was transfected into HEK293T cells; host or cells: HEK293T
T22 sequence (Q8TDR2 whole entry): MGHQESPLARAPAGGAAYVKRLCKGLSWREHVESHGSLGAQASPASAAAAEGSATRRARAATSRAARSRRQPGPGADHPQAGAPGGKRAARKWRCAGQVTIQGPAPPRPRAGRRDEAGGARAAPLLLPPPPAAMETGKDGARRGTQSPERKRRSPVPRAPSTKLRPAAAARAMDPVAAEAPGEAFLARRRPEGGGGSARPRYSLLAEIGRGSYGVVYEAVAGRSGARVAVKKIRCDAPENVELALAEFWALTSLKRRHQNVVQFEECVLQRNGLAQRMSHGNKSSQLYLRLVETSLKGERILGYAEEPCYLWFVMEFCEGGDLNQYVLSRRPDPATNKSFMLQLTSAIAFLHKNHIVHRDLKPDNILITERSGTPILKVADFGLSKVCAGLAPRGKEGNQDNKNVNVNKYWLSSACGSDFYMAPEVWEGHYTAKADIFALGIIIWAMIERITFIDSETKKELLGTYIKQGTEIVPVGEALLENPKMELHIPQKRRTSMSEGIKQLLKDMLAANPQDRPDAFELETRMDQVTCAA
Method: as §1, §2

HUNK = target: T23, HUNK (Homo sapiens, UniProt P57058); settings: 100% no effect, 0% complete tracer displacement, read-out: Tracer bound
T23 construct: Full-length kinase ORF (Promega, Madison, WI, USA) cloned in frame with a NanoLuc-vector was transfected into HEK293T cells; host or cells: HEK293T
Method: as §1, §2

TNNI3K = target: T24, TNNI3K (Homo sapiens, UniProt Q59H18); settings: 100% no effect, 0% complete tracer displacement, read-out: Tracer bound
T24 construct: Full-length kinase ORF (Promega, Madison, WI, USA) cloned in frame with a NanoLuc-vector; host or cells: HEK293T
Method: as §1, §2

RIOK2 = target: T25, RIOK2 (Homo sapiens, UniProt Q9BVS4); settings: 100% no effect, 0% complete tracer displacement, read-out: Tracer bound
T25 construct: Full-length kinase ORF (Promega, Madison, WI, USA) cloned in frame with a NanoLuc-vector was transfected into HEK293T cells; host or cells: HEK293T
Method: as §1, §2

PRKACB = target: T26, PRKACB (Homo sapiens, UniProt P22694); settings: 100% no effect, 0% complete tracer displacement, read-out: Tracer bound
T26 construct: Full-length kinase ORF (Promega, Madison, WI, USA) cloned in frame with a NanoLuc-vector was transfected into HEK293T cells; host or cells: HEK293T
Method: as §1, §2

SNRK = target: T27, SNRK (Homo sapiens, UniProt Q9NRH2); settings: 100% no effect, 0% complete tracer displacement, read-out: Tracer bound
T27 construct: Full-length kinase ORF (Promega, Madison, WI, USA) cloned in frame with a NanoLuc-vector was transfected into HEK293T cells; host or cells: HEK293T
Method: as §1, §2

STK36 = target: T28, STK36 (Homo sapiens, UniProt Q9NRP7); settings: 100% no effect, 0% complete tracer displacement, read-out: Tracer bound
T28 construct: Full-length kinase ORF (Promega, Madison, WI, USA) cloned in frame with a NanoLuc-vector was transfected into HEK293T cells; host or cells: HEK293T
T28 sequence (Q9NRP7 whole entry): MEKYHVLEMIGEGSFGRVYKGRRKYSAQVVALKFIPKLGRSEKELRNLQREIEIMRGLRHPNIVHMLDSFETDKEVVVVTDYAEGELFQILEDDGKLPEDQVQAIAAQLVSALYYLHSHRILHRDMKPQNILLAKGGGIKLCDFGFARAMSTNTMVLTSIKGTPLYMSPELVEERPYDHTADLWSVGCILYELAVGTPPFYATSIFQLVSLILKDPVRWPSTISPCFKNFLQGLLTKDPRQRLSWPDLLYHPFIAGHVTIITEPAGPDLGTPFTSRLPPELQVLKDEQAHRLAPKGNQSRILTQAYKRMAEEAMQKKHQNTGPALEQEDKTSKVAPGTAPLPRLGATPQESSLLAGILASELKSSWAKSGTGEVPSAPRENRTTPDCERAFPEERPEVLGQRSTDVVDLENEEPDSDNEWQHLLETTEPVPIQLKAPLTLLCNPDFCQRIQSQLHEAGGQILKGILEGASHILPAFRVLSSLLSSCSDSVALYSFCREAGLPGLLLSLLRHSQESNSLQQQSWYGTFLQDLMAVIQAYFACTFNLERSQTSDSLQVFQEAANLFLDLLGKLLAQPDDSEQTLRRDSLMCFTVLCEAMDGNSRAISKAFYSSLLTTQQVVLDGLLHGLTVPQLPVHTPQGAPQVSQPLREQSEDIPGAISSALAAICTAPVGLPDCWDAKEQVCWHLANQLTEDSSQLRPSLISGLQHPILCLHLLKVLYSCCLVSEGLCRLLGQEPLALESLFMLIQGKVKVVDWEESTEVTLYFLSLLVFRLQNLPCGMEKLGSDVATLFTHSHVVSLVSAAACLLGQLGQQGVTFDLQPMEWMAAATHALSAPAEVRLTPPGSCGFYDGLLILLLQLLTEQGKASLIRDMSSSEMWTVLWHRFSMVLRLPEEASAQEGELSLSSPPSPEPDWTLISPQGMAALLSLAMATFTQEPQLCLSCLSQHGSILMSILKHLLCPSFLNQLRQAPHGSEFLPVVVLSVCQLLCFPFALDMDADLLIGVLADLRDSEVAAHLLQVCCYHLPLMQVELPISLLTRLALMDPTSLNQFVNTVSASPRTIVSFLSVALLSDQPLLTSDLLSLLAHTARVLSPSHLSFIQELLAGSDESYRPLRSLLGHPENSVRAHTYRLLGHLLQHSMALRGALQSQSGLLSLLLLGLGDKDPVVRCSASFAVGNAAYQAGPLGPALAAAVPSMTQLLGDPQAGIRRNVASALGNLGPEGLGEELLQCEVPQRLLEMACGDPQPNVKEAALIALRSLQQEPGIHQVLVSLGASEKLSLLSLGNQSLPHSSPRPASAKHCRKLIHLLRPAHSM
Method: as §1, §2

AURKB = target: T29, AURKB (Homo sapiens, UniProt Q96GD4); settings: 100% no effect, 0% complete tracer displacement, read-out: Tracer bound
T29 construct: Full-length kinase ORF (Promega, Madison, WI, USA) cloned in frame with a NanoLuc-vector was transfected into HEK293T cells; host or cells: HEK293T
Method: as §1, §2

PHKG1 = target: T30, PHKG1 (Homo sapiens, UniProt Q16816); settings: 100% no effect, 0% complete tracer displacement, read-out: Tracer bound
T30 construct: Full-length kinase ORF (Promega, Madison, WI, USA) cloned in frame with a NanoLuc-vector was transfected into HEK293T cells; host or cells: HEK293T
Method: as §1, §2

remaining activity at 1 µM (EPHA6): 23.6% | remaining activity at 1 µM (CHEK2): 119% | remaining activity at 1 µM (MAP4K1): 101% | Tracer bound (STK4): 98.8% | remaining activity at 1 µM (PTK2): 118% | Tracer bound (NUAK1): 120.0% | remaining activity at 1 µM (STK38L): 90% | Tracer bound (IRAK4): 94.3% | remaining activity at 1 µM (RPS6KA3): 118% | remaining activity at 1 µM (CDK4-CCND3): 29.7% | Tracer bound (TYK2): 103.2% | remaining activity at 1 µM (PRKCQ-PMA): 108% | remaining activity at 1 µM (JAK3): 111% | remaining activity at 1 µM (WEE2): 102% | remaining activity at 1 µM (CSNK2A2): 110% | Tracer bound (CDK14-CCNY): 42.0% | remaining activity at 1 µM (STK33): 94.8% | Tracer bound (SIK3): 113.2% | remaining activity at 1 µM (ERN1): 117% | Tracer bound (MAP3K11): 109.2% | remaining activity at 1 µM (PRKCD-PMA): 113% | remaining activity at 1 µM (STK35): 59.6% | remaining activity at 1 µM (HUNK): 88.2% | remaining activity at 1 µM (TNNI3K): 15.1% | remaining activity at 1 µM (RIOK2): 109% | remaining activity at 1 µM (PRKACB): 99.6% | remaining activity at 1 µM (SNRK): 99.2% | remaining activity at 1 µM (STK36): 108% | remaining activity at 1 µM (AURKB): 76.4% | remaining activity at 1 µM (PHKG1): 87.3%
Structure (SMILES): CNC(=O)c1cc(Oc2ccc(NC(=O)Nc3cc(C(C)(C)C)on3)cc2)ccn1 [MA68, reference compound]
